Data: the supplement of paper PMC10307832

Experiments:
Experiment in all cases: relative viability (nuclei count vs DMSO), 5 days (fraction); higher = more cells survive
Bortezomib + Vorinostat = compound: CC(C)C[C@H](NC(=O)[C@H](Cc1ccccc1)NC(=O)c1cnccn1)B(O)O [Bortezomib] + O=C(CCCCCCC(=O)Nc1ccccc1)NO [Vorinostat] (partner 1 µM)
Summary of the method: (§1)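 Lung cancer cell lines in 1536-well plates got either a single drug or a fixed anchor-drug dose together with five library-drug doses (not always all listed) in √10 steps, by pin tool, on the day after seeding. Nuclei were counted after 5 days, and relative viability is the treated-to-vehicle ratio of nuclei counts. Values are medians of duplicate plates.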

[1] = compound: CC1=CC(=NN1)NC2=CC(=NC(=N2)/C=C/C3=CC=CC=C3)N4CCN(CC4)C + CC(=O)Nc1cccc(-n2c(=O)n(C3CC3)c(=O)c3c(Nc4ccc(I)cc4F)n(C)c(=O)c(C)c32)c1 [Trametinib] (partner 0.02 µM)
Summary of the method: as §1

[2] = compound: CC1=CC(=NN1)NC2=CC(=NC(=N2)/C=C/C3=CC=CC=C3)N4CCN(CC4)C + Cc1nc(NC(=O)N2CCC[C@H]2C(N)=O)sc1-c1ccnc(C(C)(C)C(F)(F)F)c1 [Alpelisib] (partner 2 µM)
Summary of the method: as §1

Obatoclax + Dasatinib = compound: COC1=CC(c2cc3ccccc3[nH]2)=N/C1=C\c1[nH]c(C)cc1C [Obatoclax] + Cc1nc(Nc2ncc(C(=O)Nc3c(C)cccc3Cl)s2)cc(N2CCN(CCO)CC2)n1 [Dasatinib] (partner 0.075 µM)
Summary of the method: as §1

Row | Cell Line | relative viability (Bortezomib + Vorinostat; first compound 0.0002 µM) | relative viability (Bortezomib + Vorinostat; first compound 0.000632 µM) | relative viability (Bortezomib + Vorinostat; first compound 0.002 µM) | relative viability (Bortezomib + Vorinostat; first compound 0.006325 µM) | relative viability (Bortezomib + Vorinostat; first compound 0.02 µM) | relative viability ([1]; first compound 0.08 µM) | relative viability ([1]; first compound 0.253 µM) | relative viability ([1]; first compound 0.8 µM) | relative viability ([1]; first compound 2.53 µM) | relative viability ([1]; first compound 8 µM) | relative viability ([2]; first compound 0.08 µM) | relative viability ([2]; first compound 0.253 µM) | relative viability ([2]; first compound 0.8 µM) | relative viability ([2]; first compound 2.53 µM) | relative viability ([2]; first compound 8 µM) | relative viability (Obatoclax + Dasatinib; first compound 0.01 µM) | relative viability (Obatoclax + Dasatinib; first compound 0.03162 µM) | relative viability (Obatoclax + Dasatinib; first compound 0.1 µM) | relative viability (Obatoclax + Dasatinib; first compound 0.3162 µM) | relative viability (Obatoclax + Dasatinib; first compound 1 µM)
1 | NCI-H2228 | 0.694 | 0.73 | 0.101 | 0.124 | 0.108 | 0.518 | 0.22 | 0.637 | 0.106 | 0.0612 | 0.632 | 0.714 | 0.437 | 0.112 | 0.0706 | 0.499 | 0.595 | 0.571 | 0.351 | 0.148
2 | NCI-H2347 | 0.621 | 0.526 | 0.384 | 0.28 | 0.235 | 0.291 | 0.231 | 0.264 | 0.291 | 0.216 | 1.06 | 1.15 | 1.07 | 0.915 | 0.517 | 0.305 | 0.281 |  | 0.308 | 0.324
3 | NCI-H2405 | 0.977 | 1.02 | 0.812 | 0.133 | 0.119 | 0.63 | 0.397 | 0.685 | 0.519 | 0.147 | 0.687 | 0.6 | 0.983 | 0.414 | 0.148 | 0.218 | 0.197 |  | 0.205 | 0.22
4 | NCI-H3122 | 0.993 | 1.07 | 1.46 | 0.515 | 0.108 | 0.201 | 0.167 | 0.293 | 0.334 | 0.257 | 0.769 | 0.799 | 0.902 | 0.621 | 0.257 | 0.925 | 0.843 | 0.798 | 0.674 | 0.766
5 | PC-3 [JPC-3] | 0.675 | 0.82 | 0.444 | 0.22 | 0.203 | 0.726 | 0.744 | 0.701 | 0.706 | 0.417 | 1.08 | 1.15 | 1.04 | 1 | 0.78 | 0.963 | 1.02 | 1.01 | 1.01 | 0.943
6 | PC-14 | 0.778 | 0.717 | 0.365 | 0.0298 | 0.0377 | 0.85 | 0.805 | 0.835 | 0.0586 | 0.038 | 0.915 | 0.85 | 0.322 | 0.749 | 0.124 | 0.285 | 0.286 | 0.225 | 0.0723 | 0.0415
7 | RERF-LC-KJ | 0.661 | 0.726 | 0.624 | 0.463 | 0.219 | 0.905 | 0.956 | 0.928 | 0.605 | 0.295 | 0.788 | 0.978 | 0.828 | 0.573 | 0.314 | 0.796 | 0.894 | 0.701 | 0.745 | 0.513
8 | SK-LU-1 | 0.733 | 0.84 | 0.314 | 0.178 | 0.186 | 0.502 | 0.266 | 0.555 | 0.229 | 0.129 | 1.05 | 0.972 | 0.636 | 0.223 | 0.113 | 0.184 | 0.19 | 0.141 | 0.157 | 0.141
9 | SK-MES-1 | 1.08 | 1.1 | 1 | 0.164 | 0.158 | 0.549 | 0.646 | 0.595 | 0.245 | 0.137 | 0.882 | 0.853 | 0.958 | 0.623 | 0.131 | 0.356 | 0.48 | 0.394 | 0.362 | 0.267
10 | SW 1573 | 0.676 | 1.02 | 0.313 | 0.0435 | 0.0242 | 0.542 | 0.636 | 0.521 | 0.12 | 0.0764 | 0.886 | 1.07 | 0.785 | 0.499 | 0.124 | 0.413 | 0.454 | 0.53 | 0.134 | 0.136
11 | UMC-11 | 0.365 | 0.399 | 0.41 | 0.112 | 0.0837 | 0.682 | 0.681 | 0.503 | 0.162 | 0.101 | 0.948 | 0.963 | 0.404 | 0.13 | 0.103 | 0.443 | 0.529 | 0.468 | 0.372 | 0.278
